The experiment concerns the target T1, Diacylglycerol O-acyltransferase 2 (Homo sapiens, UniProt Q96PD7).
T1 sequence (Q96PD7 whole entry): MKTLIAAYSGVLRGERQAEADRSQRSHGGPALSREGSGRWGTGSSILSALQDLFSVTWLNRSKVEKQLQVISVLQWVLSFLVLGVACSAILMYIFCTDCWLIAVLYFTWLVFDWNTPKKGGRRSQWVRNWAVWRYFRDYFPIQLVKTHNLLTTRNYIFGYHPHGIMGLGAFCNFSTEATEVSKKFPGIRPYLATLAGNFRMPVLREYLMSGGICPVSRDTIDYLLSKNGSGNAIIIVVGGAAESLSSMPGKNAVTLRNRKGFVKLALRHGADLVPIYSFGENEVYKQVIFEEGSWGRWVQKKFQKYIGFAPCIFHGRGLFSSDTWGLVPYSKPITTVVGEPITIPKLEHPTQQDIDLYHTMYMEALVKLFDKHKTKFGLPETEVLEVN
Briefly: Enzymatic Activity Assay: DGAT2 activity was determined by measuring the amount of enzymatic product triolein (1,2,3-Tri(cis-9-octadecenoyl)glycerol) using the membrane prep mentioned above. The assay was carried out in deep well 384 plates in a final volume of 40 μL at room temperature. The assay mixture contained the following: assay buffer (100 mM Tris·Cl, pH 7.0, 20 mM MgCl2, 5% ethanol), 25 μM of diolein, 10 μM of oleoyl-CoA and 10 ng/μL of DGAT2 membrane.

The record followed here is ChEMBL document CHEMBL5725601, “Tetrahydroisoquinoline derivatives useful as inhibitors of diacylglyceride O-acyltransferase 2” (2018).

For orientation: IC50 means the concentration that gives 50% inhibition. In the case of `CC(C)(C)NC(=O)N1CCc2c(-c3cccc(C(F)(F)F)c3)ccc(C(=O)NCc3noc(-c4ccccc4)n3)c2C1`, the IC50 turned out to be 0.326 µM.
Turning to `CC(C)(C)NC(=O)N1CCc2c(-c3cccc(C(F)(F)F)c3)ccc(C(=O)NCc3nc(-c4ccccn4)no3)c2C1`, the half-maximal inhibitory concentration (IC50) stood at 0.588 µM.
